According to PMC11302339, “A series of pyrimidine-based antifungals with anti-mold activity disrupt ER function in Aspergillus fumigatus” (Microbiology Spectrum, 2024):

Columns and labels:
[1] = test system: A. fumigatus UPR-responsive genes; experiment: A. fumigatus UPR gene expression (qRT-PCR); assay type: cell-based, Aspergillus fumigatus
Protocol: We cultured 5 × 10^6 CEA10 conidia/mL in liquid GMM for 18 hours at 37°C with shaking at 250 rpm. Cultures were treated with either DMSO or 16 µg/mL 1 for 2 hours at 37°C, 250 rpm. Then 1 mM DTT or water was added, and cultures were incubated for an additional hour. Mycelia were collected with vacuum filtration and immediately frozen with liquid nitrogen. Tissue was lyophilized then ground with glass beads with a bead beater. RNA was extracted in 1 mL of TRIazole solution (Life Technologies, Cat # 15596026), then RNA was purified with two rounds of chloroform extraction. Five micrograms of RNA was treated with TURBO DNA-free kit (Invitrogen, Cat # AM1907) according to the manufacturer’s protocol. Five hundred nanograms of DNAse-treated RNA was used for cDNA synthesis with iScript cDNA synthesis kit (BioRad, Cat # 1708891), then cDNA was diluted 1:5 with ddH2O. Quantitative real time PCR analysis was performed in 20 µL reactions using 2 µL of dilute cDNA per reaction with iQ SYBR Green Supermix (BioRad). Samples were run on a BioRad CFX Connect using a three-step amplification with 54°C annealing temperature and melt curve analysis. Gene expression is normalized to tubA and tef1 expression. Gene expression was performed in biological triplicate. Primers to detect HacA splicing and targets were designed as previously described ([51]).

C. neoformans = C. neoformans time kill assay; assay type: cell-based, Cryptococcus neoformans
Protocol: Overnight cultures of H99 were enumerated and diluted 1 × 10^5 CFU/mL in YPD with 4 µg/mL 1, 8 µg/mL 1, or DMSO. Cultures were incubated at 37°C with shaking for 30 hours with sampling at t = 0, 2, 4, 6, 8, 24, and 30 hours, then 10-fold serial dilutions of each sample were prepared and spotted on YPD. Viable colonies were enumerated after 48 hours at 30°C. Data are representative of two independent experiments performed in biological triplicate with technical duplicates.

[2] = test system: C. neoformans MAPK mutants; experiment: C. neoformans competition assay with MAPK mutants; assay type: cell-based, Cryptococcus neoformans; settings: 1.5 µg/mL 1, 24 hours, 37°C
Protocol: H99-mNeon and MAPK mutants (obtained from the C. neoformans kinase deletion collection, FGSC) were grown overnight in YPD at 30°C then washed in PBS. Each strain was counted and diluted into 96-well plates such that each well contained 1 × 10^3 CFU/strain with 1.5 µg/mL 1 or DMSO in 100 µL total volume. Plates were incubated at 37°C for 24 hours before analyzing on an Attune NxT Flow Cytometer with CytKick autosampler and Attune Cytometric software. Gating strategy was optimized for single cells as previously described ([50]). mNeonGreen positive and negative populations were identified by histogram plot with 100,000 cells counted per sample. Data represent mean and SD of biological triplicate and are representative of two independent experiments.

A. fumigatus CEA10 = experiment: ER stress interactions on GMM plates; assay type: cell-based, Aspergillus fumigatus; settings: 1 µg/mL 1 on GMM
Protocol: (§1) For Aspergillus fumigatus, 5 µL of 1 × 10^4 CEA10 conidia was spotted at the center of GMM plates containing DMSO or 1 µg/mL 1 in combination with DTT, brefeldin A, or tunicamycin. Plates were incubated at 37°C for 72 hours. Representative images of two independent experiments with three biological replicates each were obtained. For Ire1 strains, the cells were prepared as described above but were incubated at 30°C.

[3] = test system: A. fumigatus collagenase secretion; experiment: Detection of secreted collagenase by azocoll; assay type: cell-based, Aspergillus fumigatus
Protocol: 1 × 10^6 CEA10 conidia/mL were cultured in 25 mL liquid GMM for 18 hours, then mycelia were washed with sterile ddH2O and transferred to 10% FBS-MM and treated with DMSO or the indicated concentration of drugs. Cultures were incubated at 37°C, 250 rpm, for an additional 24 hours, then the supernatant and biomass were collected. One milliliter of supernatant was spun at top speed for 5 min. Azocoll of <50 mesh (Sigma, Cat # 194932) was washed in buffer (50 mM Tris, pH 7.5, 1 mM NaCl, and 0.01% sodium azide) then resuspended to 5 mg/mL. Fifteen microliters of culture supernatant was added to the 2 mL azocoll solution and incubated at 37°C with shaking at 300 rpm for 3 hours in the dark. Reactions were spun at maximum speed for 3 min; 200 µL of supernatant was then transferred to a 96-well plate; and Abs 520 was measured. Biomass was lyophilized, and absorbance readings were normalized to milligram tissue. Data represent the mean and SEM of biological triplicates with technical duplicates except for compounds 5 and 7, which are biological duplicates due to the limited availability of the drug and the required culture size for this assay.

A. fumigatus ∆ireA = experiment: Susceptibility of ∆ireA mutant on GMM plates; assay type: cell-based, Aspergillus fumigatus; settings: 72 hours at 30°C, colony diameter ratio
Protocol: as §1

C. neoformans H99 = experiment: ER stress interactions on YPD plates; assay type: cell-based, Cryptococcus neoformans; settings: 4 µg/mL 1 on YPD
Protocol: To determine interactions of 1 with ER stress in Cryptococcus neoformans, an overnight culture of H99 was diluted to 1 × 10^6 CFU/mL, then three 10-fold dilutions were prepared. Three-microliter spots of each cell dilution were plated in triplicate on YPD containing DMSO or 4 µg/mL 1 in combination with DTT, brefeldin A, or tunicamycin. Plates were incubated at 37°C for 72 hours. Images are representative of two independent experiments performed in biological triplicate.

[4] = combination: 16 µg/mL 1 for 2 hours, then 1 mM DTT for 1 hour
[5] = single agent (16 µg/mL 1, or 1 mM DTT for 1 hour), normalized to DMSO

## OC1CC(c2cc(N3CCC(CCc4ccccc4)CC3)ncn2)C1 (centres unmarked) [compound 1]
[1]; [4]
  increase in HacA^A splicing: 17 fold
  increase in HacA^B: 3 fold
[1]; [5]
  increase in BipA expression: 2 fold
  increase in PdiA expression: no change
  increase of spliced HacA (HacA^A): about threefold
C. neoformans; 8 µg/mL, 24 hours post treatment (Fig. S1)
  propidium iodide staining of C. neoformans vs vehicle: did not observe changes in propidium iodide
C. neoformans; 2× (4 µg/mL) or 4× (8 µg/mL) MIC over 30 hours
  type of activity (time kill): fungistatic
C. neoformans; 4 or 8 µg/mL, 8, 24 and 30 hours post-treatment
  viable CFUs vs vehicle-treated controls: significantly reduced
[2]; ∆hog1
  reduction of mutant in competition with H99-GFP: 20%
[2]; ∆pbs2
  reduction of mutant in competition with H99-GFP: 60%
[2]; ∆ssk2
  reduction of mutant in competition with H99-GFP: 63%
A. fumigatus CEA10; 37°C, 72 hours
  interaction with DTT: synergistic
  interaction with brefeldin A: modest antagonism
A. fumigatus CEA10; 10 µg/mL tunicamycin
  interaction with tunicamycin: slight antagonism
A. fumigatus CEA10; 50 µg/mL tunicamycin
  interaction with tunicamycin: no interaction
[3]; 1 µg/mL, 24 hours in 10% FBS-MM
  collagenase secretion: did not change collagenase secretion
[3]; 2, 4, 8 and 16 µg/mL, 24 hours in 10% FBS-MM, dose-dependent
  collagenase secretion: significantly inhibited
[3]; treated with 1/2 MIC of each compound
  collagenase secretion: inhibition of collagenase secretion was similar
A. fumigatus ∆ireA
  susceptibility of ∆ireA mutant vs wild type: same susceptibility as wild type
C. neoformans H99; 0.125 µg/mL tunicamycin
  interaction with tunicamycin: antagonistic
C. neoformans H99; 0.25 µg/mL tunicamycin
  interaction with tunicamycin: additive
C. neoformans H99; 37°C, 72 hours
  interaction with DTT: synergistic
  interaction with brefeldin A: synergistic
